Laboratory results taken from EP1243271A1, “NASAL DROPS CONTAINING FUSED PYRIDAZINE DERIVATIVES” (Takeda Chemical Industries, Ltd., priority 1999, dated 2001).

Experiments:
[1] = test system: Male Hartley guinea pigs; assay: Effect on histamine-induced increases in microvascular permeability in skin in guinea pigs; format: in vivo; details: Cavia porcellus; 3 mg/kg oral administration 1 hour before histamine; guinea pig skin
Procedure: Male Hartley guinea pigs weighing about 500 g were used. After the dorsal hair was shaved under ether anesthesia, 1 ml of a 2.5% pontamine sky blue solution was injected intravenously, and then 0.1 ml of histamine at 3 µg/ml was injected intradermally into 2 sites (left and right) in the back. Thirty minutes after the injection of histamine, animals were fainted by knocking in the head, decapitated and killed by bleeding, after which the skin of the back was removed. The long and short diameters (mm) of each blue spot were measured and multiplied; the mean product was taken as the vascular permeability index. Test compounds were suspended in a 5% gum arabic solution and orally administered in a volume of 0.2 ml/100 g body weight at 1 hour before histamine administration. Animals in the control group received the same volume of a 5% gum arabic solution. Equation 1 Inhibition (%) of histamine-induced increases in microvascular permeability in skin = 100 × (1-vascular permeability index in the presence of drug/vascular permeability index in control group) [formula]

[2] = test system: guinea pig; assay: Effect on intranasal pressure and pituita (nasal) secretion after histamine aerosol, nasal administration; format: in vivo
Procedure: Animals were anesthetized with pentobarbital sodium (30 mg/kg, i.p.), and the compound of Reference Example B135 and solvent (0.1% sodium dihydrogenphosphate + 0.1% Tween 80) were administered into the both nasal cavities of guinea pig in 20 µL. The animals underwent the following test in about 0.5 hour.
The animals under anesthesia was held in the supine position. The neck was opened by median incision to expose the air tube. For maintenance of respiration, a polyethylene tube was inserted down into the air tube. Another polyethylene tube was inserted from the air tube incision into the rhinopharynx, and connected to a respirator via a silicon tube, through which the air was supplied into the nasal cavity at a volume of 4 mL/stroke and a frequency of 70 strokes/min. To prevent the air leak into the oral cavity, incisive canal was closed with Aron alfa A (trademark, Sankyo, Tokyo). The intranasal pressure was measured with a transducer connected to a side branch of the tube inserted into the nasal cavity. Histamine 1000 µg/mL solution was aerosolized using an ultrasonic nebulizer provided between the respirator and the tube in the nasal cavity, and the air was supplied into the nasal cavity for 3 minutes. After the histamine air supply, the intranasal pressure was depicted on an oscillograph for 15 minutes and the area under the curve was determined.
The pituita flowed out from the nasal cavity or pooled in the nasal cavity during the 15 minutes after histamine air supply was wiped with a cotton swab, which was weighed on an electronic weighing machine.
Where necessary, aerosolized physiological saline as a negative control was supplied into the nasal cavity, and the intranasal pressure and nasal secretion were measured.

[3] = biological target: T1, histamine H1 receptor (Cavia porcellus, UniProt P31389); assay: Penetrability into the brain: ex vivo binding test with tritium-labeled pyrilamine in brain and lung membrane fractions; set-up: species or system guinea pigs
T1 construct: The cerebral cortex and lung tissues were removed and homogenized in phosphate buffer solution; from tissue; host or cells: cerebral cortex and lung crude membrane fractions of male Hartley guinea pigs
Procedure: The compound of Reference Example B135 was orally administered (10 or 100 mg/kg) to male Hartley guinea pigs and, one hour later, the guinea pigs were slaughtered by decapitation. The cerebral cortex and lung tissues were removed and homogenized in phosphate buffer solution, followed by centrifugation at 4°C and 1000×g for 10 minutes. The supernatant was further centrifuged at 5000×g for 10 minutes to give crude membrane fractions. The membrane fractions were suspended in a buffer and, after adjusting the protein concentration to 1.0 mg/mL, subjected to binding test with tritium-labeled pyrilamine (2 nM). The inhibitory action on ex vivo binding test measured specific binding of pyrilamine in the brain and lung membrane fractions was calculated and used as an index of selectivity to peripheral histamine H1 receptor in the body upon oral administration of the agent.

[4] = 0.1% solution, nasal, 20 µL, histamine 1000 µg/mL aerosol
[5] = 1.0% solution, nasal, 20 µL, histamine 1000 µg/mL aerosol

T1 sequence (P31389 whole entry): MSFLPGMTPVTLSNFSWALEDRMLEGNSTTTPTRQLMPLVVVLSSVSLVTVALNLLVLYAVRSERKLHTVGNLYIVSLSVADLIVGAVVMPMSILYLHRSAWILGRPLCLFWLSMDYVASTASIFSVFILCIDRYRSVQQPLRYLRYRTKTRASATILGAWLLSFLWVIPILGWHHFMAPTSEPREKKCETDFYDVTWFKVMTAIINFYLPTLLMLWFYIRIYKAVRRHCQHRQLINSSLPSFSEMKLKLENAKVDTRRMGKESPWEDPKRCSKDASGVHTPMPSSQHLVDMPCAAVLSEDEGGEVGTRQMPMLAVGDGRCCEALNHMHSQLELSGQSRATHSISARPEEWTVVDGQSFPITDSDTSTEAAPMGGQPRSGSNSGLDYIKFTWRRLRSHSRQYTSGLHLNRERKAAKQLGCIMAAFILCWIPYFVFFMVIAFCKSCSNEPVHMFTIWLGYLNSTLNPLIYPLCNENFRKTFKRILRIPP

In the case of `CC(C)(C(=O)O)c1cn2nc(NCCCN3CCC(OC(c4ccccc4)c4ccccc4)CC3)ccc2n1.O.O` [Reference Example B135, 2-[6-[3-[4-(diphenylmethoxy)piperidino]-propylamino]imidazo[1,2-b]pyridazin-2-yl]-2-methylpropionic acid dihydrate], the inhibition in vivo at 3 mg/kg [1] is reported as 91%, the “percent inhibition of increase in intranasal pressure by nasal administration of 0.1% solution” value [2, 4] is reported as 70% and the “percent inhibition of nasal secretion by nasal administration of 0.1% solution” value [2, 4] is reported as 72%. The “percent inhibition of increase in intranasal pressure by nasal administration of 1.0% solution” value [2, 5] was 62%, the “percent inhibition of nasal secretion by nasal administration of 1.0% solution” value [2, 5] was 78% and the “increase in the intranasal pressure and nasal secretion” value ([2]; conclusion from Tables 3 and 4) was “reduced increase in the intranasal pressure and nasal secretion”. The “penetrability into the brain” value ([3]; conclusion from Tables 5 and 6) was “poor penetrability into the brain”, the “percent inhibition of specific binding of membrane fraction pyrilamine in brain” value ([3]; oral administration of 10 mg/kg, one hour later, brain (cerebral cortex)) was -2.9% and the “percent inhibition of specific binding of pyrilamine in lung membrane fraction” value ([3]; oral administration of 10 mg/kg, one hour later) was 95%. For the same molecule, the “percent inhibition of specific binding of pyrilamine in brain membrane fraction” value ([3]; oral administration of 100 mg/kg, one hour later, brain (cerebral cortex)) was 44% and the “percent inhibition of specific binding of pyrilamine in lung membrane fraction” value ([3]; oral administration of 100 mg/kg, one hour later) was 95%.
